# Test results taken from ChEMBL document CHEMBL3045426, “Synthesis, Antiviral and Antibacterial Activities of Isatin Mannich Bases” (Med Chem Res, 2005).
# Test system: Vero
# Test: Cytotoxicity against Chlorocebus aethiops (African green monkey) Vero cells up to 62.5 ug/ml
# Assay type: cell-based
# Conditions: chlorocebus sabaeus
row,Structure (SMILES),Activity
1,COc1cc(Cc2cnc(/N=C3\C(=O)N(CN4CCN(c5cc6c(cc5F)c(=O)c(C(=O)O)cn6C5CC5)CC4)c4ccc(Cl)cc43)nc2N)cc(OC)c1OC,Non-toxic

# Test system: Mycobacterium tuberculosis
# Test: Antimycobacterial activity against Mycobacterium tuberculosis H37Rv ATCC 27294
# Assay type: functional
# Conditions: not given
row,Structure (SMILES),MIC [µg/mL]
1,COc1cc(Cc2cnc(/N=C3\C(=O)N(CN4CCN(c5cc6c(cc5F)c(=O)c(C(=O)O)cn6C5CC5)CC4)c4ccc(Cl)cc43)nc2N)cc(OC)c1OC,3.13

# Test system: Escherichia coli
# Test: Ratio of ciproflaxacin ED50 to compound ED50 for Escherichia coli NCTC 10418 infected in po dosed CF mouse
# Assay type: functional
# Conditions: not given
row,Structure (SMILES),Ratio ED50
1,COc1cc(Cc2cnc(/N=C3\C(=O)N(CN4CCN(c5cc6c(cc5F)c(=O)c(C(=O)O)cn6C5CC5)CC4)c4ccc(Cl)cc43)nc2N)cc(OC)c1OC,2

# Test system: Escherichia coli
# Test: Antibacterial activity against Escherichia coli NCTC 10418 infected in po dosed CF mouse compound administered 1 hr prior and 4 hr post infection
# Assay type: functional
# Conditions: NCTC 10418, po
row,Structure (SMILES),ED50 [mg/kg]
1,COc1cc(Cc2cnc(/N=C3\C(=O)N(CN4CCN(c5cc6c(cc5F)c(=O)c(C(=O)O)cn6C5CC5)CC4)c4ccc(Cl)cc43)nc2N)cc(OC)c1OC,0.62

# Target: Human immunodeficiency virus type 1 reverse transcriptase (Human immunodeficiency virus 1, UniProt Q72547)
# Test: Inhibition of Human immunodeficiency virus 1 RT using Poly(vC)oligo (dG) as template/primer after 30 min
# Conditions: not given
row,Structure (SMILES),IC50 [µM]
1,COc1cc(Cc2cnc(/N=C3\C(=O)N(CN4CCN(c5cc6c(cc5F)c(=O)c(C(=O)O)cn6C5CC5)CC4)c4ccc(Cl)cc43)nc2N)cc(OC)c1OC,18.4

# Test system: not listed separately
# Test: Selectivity index, ratio of CC50 for human MT4 cells to EC50 for HIV1 3B infected in MT4 cells
# Assay type: toxicity, cell-based
# Conditions: read-out: Ratio CC50/EC50
row,Structure (SMILES),selectivity ratio
1,COc1cc(Cc2cnc(/N=C3\C(=O)N(CN4CCN(c5cc6c(cc5F)c(=O)c(C(=O)O)cn6C5CC5)CC4)c4ccc(Cl)cc43)nc2N)cc(OC)c1OC,> 19

# Test system: Vibrio cholerae
# Test: Antimicrobial activity against Vibrio cholerae 01 after 18 to 20 hr by agar dilution method
# Assay type: functional
# Conditions: 1
row,Structure (SMILES),MIC [µg/mL]
1,COc1cc(Cc2cnc(/N=C3\C(=O)N(CN4CCN(c5cc6c(cc5F)c(=O)c(C(=O)O)cn6C5CC5)CC4)c4ccc(Cl)cc43)nc2N)cc(OC)c1OC,4.88

# Test system: Priestia megaterium
# Test: Antimicrobial activity against Bacillus megaterium after 18 to 20 hr by agar dilution method
# Assay type: functional
# Conditions: not given
row,Structure (SMILES),MIC [µg/mL]
1,COc1cc(Cc2cnc(/N=C3\C(=O)N(CN4CCN(c5cc6c(cc5F)c(=O)c(C(=O)O)cn6C5CC5)CC4)c4ccc(Cl)cc43)nc2N)cc(OC)c1OC,0.019

# Test system: Enterobacter
# Test: Antimicrobial activity against Enterobacter after 18 to 20 hr by agar dilution method
# Assay type: functional
# Conditions: not given
row,Structure (SMILES),MIC [µg/mL]
1,COc1cc(Cc2cnc(/N=C3\C(=O)N(CN4CCN(c5cc6c(cc5F)c(=O)c(C(=O)O)cn6C5CC5)CC4)c4ccc(Cl)cc43)nc2N)cc(OC)c1OC,0.0381

# Test system: Citrobacter freundii
# Test: Antimicrobial activity against Citrobacter freundii after 18 to 20 hr by agar dilution method
# Assay type: functional
# Conditions: not given
row,Structure (SMILES),MIC [µg/mL]
1,COc1cc(Cc2cnc(/N=C3\C(=O)N(CN4CCN(c5cc6c(cc5F)c(=O)c(C(=O)O)cn6C5CC5)CC4)c4ccc(Cl)cc43)nc2N)cc(OC)c1OC,1.22

# Test system: Salmonella enteritidis
# Test: Antimicrobial activity against Salmonella enterica subsp. enterica serovar Enteritidis after 18 to 20 hr by agar dilution method
# Assay type: functional
# Conditions: not given
row,Structure (SMILES),MIC [µg/mL]
1,COc1cc(Cc2cnc(/N=C3\C(=O)N(CN4CCN(c5cc6c(cc5F)c(=O)c(C(=O)O)cn6C5CC5)CC4)c4ccc(Cl)cc43)nc2N)cc(OC)c1OC,0.61

# Test system: Salmonella typhimurium
# Test: Antimicrobial activity against Salmonella enterica subsp. enterica serovar Typhimurium after 18 to 20 hr by agar dilution method
# Assay type: functional
# Conditions: not given
row,Structure (SMILES),MIC [µg/mL]
1,COc1cc(Cc2cnc(/N=C3\C(=O)N(CN4CCN(c5cc6c(cc5F)c(=O)c(C(=O)O)cn6C5CC5)CC4)c4ccc(Cl)cc43)nc2N)cc(OC)c1OC,0.0047

# Test system: Proteus mirabilis
# Test: Antimicrobial activity against Proteus mirabilis after 18 to 20 hr by agar dilution method
# Assay type: functional
# Conditions: not given
row,Structure (SMILES),MIC [µg/mL]
1,COc1cc(Cc2cnc(/N=C3\C(=O)N(CN4CCN(c5cc6c(cc5F)c(=O)c(C(=O)O)cn6C5CC5)CC4)c4ccc(Cl)cc43)nc2N)cc(OC)c1OC,0.019

# Test system: Proteus vulgaris
# Test: Antimicrobial activity against Proteus vulgaris after 18 to 20 hr by agar dilution method
# Assay type: functional
# Conditions: not given
row,Structure (SMILES),MIC [µg/mL]
1,COc1cc(Cc2cnc(/N=C3\C(=O)N(CN4CCN(c5cc6c(cc5F)c(=O)c(C(=O)O)cn6C5CC5)CC4)c4ccc(Cl)cc43)nc2N)cc(OC)c1OC,0.0095

# Test system: Edwardsiella tarda
# Test: Antimicrobial activity against Edwardsiella tarda after 18 to 20 hr by agar dilution method
# Assay type: functional
# Conditions: not given
row,Structure (SMILES),MIC [µg/mL]
1,COc1cc(Cc2cnc(/N=C3\C(=O)N(CN4CCN(c5cc6c(cc5F)c(=O)c(C(=O)O)cn6C5CC5)CC4)c4ccc(Cl)cc43)nc2N)cc(OC)c1OC,0.019

# Test system: Escherichia coli
# Test: Antimicrobial activity against Escherichia coli NCTC 10418 after 18 to 20 hr by agar dilution method
# Assay type: functional
# Conditions: not given
row,Structure (SMILES),MIC [µg/mL]
1,COc1cc(Cc2cnc(/N=C3\C(=O)N(CN4CCN(c5cc6c(cc5F)c(=O)c(C(=O)O)cn6C5CC5)CC4)c4ccc(Cl)cc43)nc2N)cc(OC)c1OC,0.0381

# Test system: Salmonella typhi
# Test: Antimicrobial activity against Salmonella enterica subsp. enterica serovar Typhi after 18 to 20 hr by agar dilution method
# Assay type: functional
# Conditions: not given
row,Structure (SMILES),MIC [µg/mL]
1,COc1cc(Cc2cnc(/N=C3\C(=O)N(CN4CCN(c5cc6c(cc5F)c(=O)c(C(=O)O)cn6C5CC5)CC4)c4ccc(Cl)cc43)nc2N)cc(OC)c1OC,0.305

# Test system: Salmonella paratyphi
# Test: Antimicrobial activity against Salmonella enterica subsp. enterica serovar Paratyphi A after 18 to 20 hr by agar dilution method
# Assay type: functional
# Conditions: not given
row,Structure (SMILES),MIC [µg/mL]
1,COc1cc(Cc2cnc(/N=C3\C(=O)N(CN4CCN(c5cc6c(cc5F)c(=O)c(C(=O)O)cn6C5CC5)CC4)c4ccc(Cl)cc43)nc2N)cc(OC)c1OC,0.153

# Test system: Vibrio parahaemolyticus
# Test: Antimicrobial activity against Vibrio parahaemolyticus after 18 to 20 hr by agar dilution method
# Assay type: functional
# Conditions: not given
row,Structure (SMILES),MIC [µg/mL]
1,COc1cc(Cc2cnc(/N=C3\C(=O)N(CN4CCN(c5cc6c(cc5F)c(=O)c(C(=O)O)cn6C5CC5)CC4)c4ccc(Cl)cc43)nc2N)cc(OC)c1OC,0.0763
